Laboratory results reported in article PMC9090415, “Discovery of small molecule inhibitors of Plasmodium falciparum apicoplast DNA polymerase” (Journal of Enzyme Inhibition and Medicinal Chemistry, 2022).

Target: T1, bacteriophage T4 DNA polymerase (Enterobacteria phage T4, UniProt P04415)
T1 construct: made in house
T1 sequence (P04415 1-898): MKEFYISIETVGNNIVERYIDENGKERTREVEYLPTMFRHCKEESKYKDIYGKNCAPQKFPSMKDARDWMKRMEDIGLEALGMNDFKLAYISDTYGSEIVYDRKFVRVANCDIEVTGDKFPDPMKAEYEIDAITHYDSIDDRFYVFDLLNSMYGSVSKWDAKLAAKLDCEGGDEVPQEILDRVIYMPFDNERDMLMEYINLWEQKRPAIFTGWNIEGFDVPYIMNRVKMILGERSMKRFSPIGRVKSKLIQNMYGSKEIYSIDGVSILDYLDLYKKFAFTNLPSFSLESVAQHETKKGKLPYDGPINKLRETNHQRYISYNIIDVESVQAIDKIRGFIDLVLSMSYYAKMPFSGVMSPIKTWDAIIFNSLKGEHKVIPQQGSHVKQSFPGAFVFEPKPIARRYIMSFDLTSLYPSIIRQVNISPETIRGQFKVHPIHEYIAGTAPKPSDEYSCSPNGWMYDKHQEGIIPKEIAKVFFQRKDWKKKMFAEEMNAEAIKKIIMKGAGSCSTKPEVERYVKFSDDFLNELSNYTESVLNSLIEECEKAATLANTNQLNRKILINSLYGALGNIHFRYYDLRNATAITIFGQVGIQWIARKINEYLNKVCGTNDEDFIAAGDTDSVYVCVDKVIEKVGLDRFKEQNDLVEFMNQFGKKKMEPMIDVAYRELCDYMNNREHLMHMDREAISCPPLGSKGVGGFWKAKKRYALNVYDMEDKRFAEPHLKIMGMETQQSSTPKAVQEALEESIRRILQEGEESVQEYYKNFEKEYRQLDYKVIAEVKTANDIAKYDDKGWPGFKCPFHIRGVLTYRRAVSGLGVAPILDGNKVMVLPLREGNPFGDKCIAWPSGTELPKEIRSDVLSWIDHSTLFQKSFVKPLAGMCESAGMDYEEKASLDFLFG
Experiment: Counter-screen against bacteriophage T4 DNA polymerase
Assay type: biochemical
Conditions: for % inhibition T4 10' 2.5 / % inhibition T4 10' 5 / % inhibition T4 10' 10 / % inhibition T4 10' 20 / % inhibition T4 10' 40 / % inhibition T4 10' 80: read at 10'; for % inhibition T4 10' 2.5 / % inhibition T4 70' 2.5 / % inhibition T4 130' 2.5 / % inhibition T4 40' 2.5 / % inhibition T4 90' 2.5 / % inhibition T4 180' 2.5: concentration 2.5; for % inhibition T4 10' 5 / % inhibition T4 70' 5 / % inhibition T4 130' 5 / % inhibition T4 40' 5 / % inhibition T4 90' 5 / % inhibition T4 180' 5: concentration 5; for % inhibition T4 10' 10 / % inhibition T4 70' 10 / % inhibition T4 130' 10 / % inhibition T4 40' 10 / % inhibition T4 90' 10 / % inhibition T4 180' 10: concentration 10; for % inhibition T4 70' 2.5 / % inhibition T4 70' 5 / % inhibition T4 70' 10 / % inhibition T4 70' 20 / % inhibition T4 70' 40 / % inhibition T4 70' 80: read at 70'; for % inhibition T4 130' 2.5 / % inhibition T4 130' 5 / % inhibition T4 130' 10 / % inhibition T4 130' 20 / % inhibition T4 130' 40 / % inhibition T4 130' 80: read at 130'; for % inhibition T4 40' 2.5 / % inhibition T4 40' 5 / % inhibition T4 40' 10 / % inhibition T4 40' 20 / % inhibition T4 40' 40 / % inhibition T4 40' 80: read at 40'; for % inhibition T4 90' 2.5 / % inhibition T4 90' 5 / % inhibition T4 90' 10 / % inhibition T4 90' 20 / % inhibition T4 90' 40 / % inhibition T4 90' 80: read at 90'; for % inhibition T4 180' 2.5 / % inhibition T4 180' 5 / % inhibition T4 180' 10 / % inhibition T4 180' 20 / % inhibition T4 180' 40 / % inhibition T4 180' 80: read at 180'
Summary of the method: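 IC50 values come from dose-response testing of each compound against T4 DNA polymerase. This B-family polymerase was purified in-house and used as the counter-screen.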

O=C(Nc1ccc2c(c1)Cc1cc(NC(=O)c3ccco3)ccc1-2)c1ccco1 [KU0038977]
% inhibition T4 10' (DRC-2, 10', concentration 80): 20%
% inhibition T4 40' (DRC-2, concentration 20): 25%
% inhibition T4 40' (DRC-2, concentration 40): 35%
% inhibition T4 90' (DRC-2, concentration 20): 25%
% inhibition T4 90' (DRC-2, concentration 40): 35%
% inhibition T4 90' (DRC-2, concentration 80): 35%
% inhibition T4 180' (DRC-2, 180', concentration 20): 20%

O=C(c1ccccc1)N1CCc2c(nc3cc(-c4ccccc4)[nH]n3c2=O)C1 [Molecule 30, O=C(N1CCc2c(C1)nc1n(c2=O)[nH]c(c1)c1ccccc1)c1ccccc1]
% inhibition T4 10' 2.5 (DRC-1): -1.603%
% inhibition T4 10' 5 (DRC-1): -4.492%
% inhibition T4 10' 10 (DRC-1): -6.45%
% inhibition T4 10' 20 (DRC-1, concentration 20): 0.1503%
% inhibition T4 10' 40 (DRC-1, concentration 40): 0.9641%
% inhibition T4 10' 80 (DRC-1, concentration 80): -0.6394%
% inhibition T4 70' 2.5 (DRC-1): -4.009%
% inhibition T4 70' 5 (DRC-1): -7.504%
% inhibition T4 70' 10 (DRC-1): -7.7135%
% inhibition T4 70' 20 (DRC-1, concentration 20): -3.401%
% inhibition T4 70' 40 (DRC-1, concentration 40): -0.06602%
% inhibition T4 70' 80 (DRC-1, concentration 80): -5.584%
% inhibition T4 130' 2.5 (DRC-1): -6.3102%
% inhibition T4 130' 5 (DRC-1): -10.6574%
% inhibition T4 130' 10 (DRC-1): -9.449%
% inhibition T4 130' 20 (DRC-1, concentration 20): -6.067%
% inhibition T4 130' 40 (DRC-1, concentration 40): -1.0022%
% inhibition T4 130' 80 (DRC-1, concentration 80): -9.233%
% inhibition T4 10' 2.5 (DRC-2): 1.68%
% inhibition T4 10' 5 (DRC-2): -13%
% inhibition T4 10' 10 (DRC-2): -11%
% inhibition T4 10' 20 (DRC-2, concentration 20): -20%
% inhibition T4 10' 40 (DRC-2, concentration 40): -17%
% inhibition T4 10' 80 (DRC-2, concentration 80): -22%
% inhibition T4 40' 2.5 (DRC-2): 1.68%
% inhibition T4 40' 5 (DRC-2): -13%
% inhibition T4 40' 10 (DRC-2): -11%
% inhibition T4 40' 20 (DRC-2, concentration 20): -20%
% inhibition T4 40' 40 (DRC-2, concentration 40): -17%
% inhibition T4 40' 80 (DRC-2, concentration 80): -22%
% inhibition T4 90' 2.5 (DRC-2): 1%
% inhibition T4 90' 5 (DRC-2): -13%
% inhibition T4 90' 10 (DRC-2): -10%
% inhibition T4 90' 20 (DRC-2, concentration 20): -17%
% inhibition T4 90' 40 (DRC-2, concentration 40): -15%
% inhibition T4 90' 80 (DRC-2, concentration 80): -21%
% inhibition T4 180' 2.5 (DRC-2): -2.79%
% inhibition T4 180' 5 (DRC-2): -16%
% inhibition T4 180' 10 (DRC-2): -13%
% inhibition T4 180' 20 (DRC-2, concentration 20): -19%
% inhibition T4 180' 40 (DRC-2, concentration 40): -15%
% inhibition T4 180' 80 (DRC-2, concentration 80): -21%

Cc1ccsc1Cn1c(C)ccc1C [Molecule 70, Cc1ccsc1Cn1c(C)ccc1C]
% inhibition T4 10' 2.5 (DRC-1): -4.493%
% inhibition T4 10' 5 (DRC-1): -2.675%
% inhibition T4 10' 10 (DRC-1): 9.004%
% inhibition T4 10' 20 (DRC-1, concentration 20): 13.0915%
% inhibition T4 10' 40 (DRC-1, concentration 40): 20.7391%
% inhibition T4 10' 80 (DRC-1, concentration 80): -6.46%
% inhibition T4 70' 2.5 (DRC-1): -3.335%
% inhibition T4 70' 5 (DRC-1): -3.037%
% inhibition T4 70' 10 (DRC-1): 6.944%
% inhibition T4 70' 20 (DRC-1, concentration 20): 8.488%
% inhibition T4 70' 40 (DRC-1, concentration 40): 14.2763%
% inhibition T4 70' 80 (DRC-1, concentration 80): -12.9684%
% inhibition T4 130' 2.5 (DRC-1): -4.899%
% inhibition T4 130' 5 (DRC-1): -4.557%
% inhibition T4 130' 10 (DRC-1): 3.714%
% inhibition T4 130' 20 (DRC-1, concentration 20): 4.205%
% inhibition T4 130' 40 (DRC-1, concentration 40): 10.2962%
% inhibition T4 130' 80 (DRC-1, concentration 80): -25.7177%
% inhibition T4 10' 2.5 (DRC-2): -7%
% inhibition T4 10' 5 (DRC-2): -1.66%
% inhibition T4 10' 10 (DRC-2): 10%
% inhibition T4 10' 20 (DRC-2, concentration 20): 11%
% inhibition T4 10' 40 (DRC-2, concentration 40): 14%
% inhibition T4 10' 80 (DRC-2, concentration 80): 7.37%
% inhibition T4 40' 2.5 (DRC-2): -7%
% inhibition T4 40' 5 (DRC-2): -2%
% inhibition T4 40' 10 (DRC-2): 10%
% inhibition T4 40' 20 (DRC-2, concentration 20): 11%
% inhibition T4 40' 40 (DRC-2, concentration 40): 14%
% inhibition T4 40' 80 (DRC-2, concentration 80): 7%
% inhibition T4 90' 2.5 (DRC-2): -5%
% inhibition T4 90' 5 (DRC-2): -2.51%
% inhibition T4 90' 10 (DRC-2): 8%
% inhibition T4 90' 20 (DRC-2, concentration 20): 9%
% inhibition T4 90' 40 (DRC-2, concentration 40): 12%
% inhibition T4 90' 80 (DRC-2, concentration 80): 5%
% inhibition T4 180' 2.5 (DRC-2): -7%
% inhibition T4 180' 5 (DRC-2): -9%
% inhibition T4 180' 10 (DRC-2): 1.9%
% inhibition T4 180' 20 (DRC-2, concentration 20): 4%
% inhibition T4 180' 40 (DRC-2, concentration 40): 8%
% inhibition T4 180' 80 (DRC-2, concentration 80): 1.21%
